Reference: PubChem BioAssay AID248 (DTP/NCI, 2004)
Several values for one entry are separate records, joined by “and”; a condition that tells them apart may be missing. Identical values can stand only once. Inconclusive results and toxic doses are left out. No stated cut-off is given here; in the data, active means T/C of 150% or more; inactive means T/C below 125%.

Test system: L1210 leukemia ip in BDF1 mice, survival T/C
Experiment: NCI In Vivo Anticancer Drug Screen. Data for tumor model L1210 Leukemia (intraperitoneal) in B6D2F1 (BDF1) mice
Conditions: endpoint: mean survival time, higher = longer survival
Method in brief: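 Each compound was tested against a transplantable tumor grown in mice. The endpoint was survival, with treated animals benchmarked against vehicle controls as a simple ratio.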

[1] = dose: 100.0 mg/kg/injection, schedule: Q01DX009 (ip), vehicle: saline with Tween-80
[2] = dose: 200.0 mg/kg/injection, schedule: Q01DX009 (ip), vehicle: saline with Tween-80
[3] = dose: 100.0 mg/kg/injection, schedule: Q04DX003 (ip), vehicle: saline with Tween-80
[4] = dose: 200.0 mg/kg/injection, schedule: Q04DX003 (ip), vehicle: saline with Tween-80
[5] = dose: 400.0 mg/kg/injection, schedule: Q04DX003 (ip), vehicle: saline with Tween-80
[6] = dose: 25.0 mg/kg/injection, schedule: Q01DX009 (ip), vehicle: saline
[7] = dose: 50.0 mg/kg/injection, schedule: Q01DX009 (ip), vehicle: saline
[8] = dose: 100.0 mg/kg/injection, schedule: Q01DX009 (ip), vehicle: saline
[9] = dose: 100.0 mg/kg/injection, schedule: Q04DX003 (ip), vehicle: saline
[10] = dose: 100.0 mg/kg/injection, schedule: Q01DX009 (ip), vehicle: Klucel (hydroxypropylcellulose) (HPC)
[11] = dose: 200.0 mg/kg/injection, schedule: Q01DX009 (ip), vehicle: Klucel (hydroxypropylcellulose) (HPC)
[12] = dose: 200.0 mg/kg/injection, schedule: Q01DX009 (ip), vehicle: saline
[13] = dose: 200.0 mg/kg/injection, schedule: Q04DX003 (ip), vehicle: saline
[14] = dose: 400.0 mg/kg/injection, schedule: Q04DX003 (ip), vehicle: saline
[15] = dose: 400.0 mg/kg/injection, schedule: Q01DX009 (ip), vehicle: saline with Tween-80
[16] = dose: 100.0 mg/kg/injection, schedule: Q01DX001 (ip), vehicle: other
[17] = dose: 200.0 mg/kg/injection, schedule: Q01DX001 (ip), vehicle: other

Measured: T/C

CCCc1c(C)nc(N)[nH]c1=O
inactive: dose: 100.0 mg/kg/injection, schedule: Q01DX001 (ip), vehicle: Klucel (hydroxypropylcellulose) (HPC) 102 % of control | dose: 200.0 mg/kg/injection, schedule: Q01DX001 (ip), vehicle: Klucel (hydroxypropylcellulose) (HPC) 100 % of control | dose: 400.0 mg/kg/injection, schedule: Q01DX001 (ip), vehicle: Klucel (hydroxypropylcellulose) (HPC) 97 % of control

OC1CCCCC1(c1ccccc1)c1ccccc1 (stereo not given)
inactive: dose: 50.0 mg/kg/injection, schedule: Q01DX009 (ip), vehicle: saline with Tween-80 94 % of control | [1] 91 % of control | [2] 91 % of control

NC(C(=O)O)c1ccccc1C(=O)O (stereo not given)
inactive: [3] 96 % of control | [4] 103 % of control | [5] 103 % of control

Cc1ccc(/C=C/[N+](=O)[O-])cc1
inactive: dose: 6.25 mg/kg/injection, schedule: Q01DX009 (ip), vehicle: saline sonified 100 % of control | dose: 6.25 mg/kg/injection, schedule: Q04DX003 (ip), vehicle: Klucel (hydroxypropylcellulose) (HPC) 97 % of control | dose: 12.5 mg/kg/injection, schedule: Q01DX009 (ip), vehicle: saline sonified 101 % of control | dose: 12.5 mg/kg/injection, schedule: Q04DX003 (ip), vehicle: Klucel (hydroxypropylcellulose) (HPC) 97 % of control | dose: 25.0 mg/kg/injection, schedule: Q01DX009 (ip), vehicle: saline sonified 101 % of control | dose: 25.0 mg/kg/injection, schedule: Q04DX003 (ip), vehicle: Klucel (hydroxypropylcellulose) (HPC) 93 % of control

C=CCNC(=O)CCl
inactive: [6] 100 % of control | dose: 25.0 mg/kg/injection, schedule: Q04DX003 (ip), vehicle: saline 97 % of control | [7] 99 % of control | dose: 66.0 mg/kg/injection, schedule: Q04DX003 (ip), vehicle: saline 104 % of control | [8] 95 % of control | [9] 106 % of control and 108 % of control | dose: 150.0 mg/kg/injection, schedule: Q04DX003 (ip), vehicle: saline 100 % of control

CCS(=O)(=O)c1ccc(NC(=O)Oc2ccccc2OC)cc1
inactive: dose: 100.0 mg/kg/injection, schedule: Q01DX001 (ip), vehicle: carboxymethylcellulose (CMC) 89 % of control | dose: 200.0 mg/kg/injection, schedule: Q01DX001 (ip), vehicle: carboxymethylcellulose (CMC) 100 % of control | dose: 400.0 mg/kg/injection, schedule: Q01DX001 (ip), vehicle: carboxymethylcellulose (CMC) 100 % of control

ClC1(Cl)OC(Cl)(Cl)C(Cl)(Cl)OC1(Cl)Cl
inactive: dose: 50.0 mg/kg/injection, schedule: Q01DX009 (ip), vehicle: Klucel (hydroxypropylcellulose) (HPC) 98 % of control | [10] 98 % of control | [11] 102 % of control

O=C(NCCCCC(NC(=O)OCc1ccccc1)C(=O)NCCCCCCNCCCCCCNC(=O)C(CCCCNC(=O)OCc1ccccc1)NC(=O)OCc1ccccc1)OCc1ccccc1 (stereo not given)
inactive: dose: 100.0 mg/kg/injection, schedule: Q01DX001 (ip), vehicle: saline 94 % of control | dose: 200.0 mg/kg/injection, schedule: Q01DX001 (ip), vehicle: saline 92 % of control | dose: 400.0 mg/kg/injection, schedule: Q01DX001 (ip), vehicle: saline 96 % of control

COc1ccc(C2(O)c3ccccc3-c3ccccc32)cc1
inactive: [6] 98 % of control | [7] 93 % of control | [8] 98 % of control | [12] 101 % of control | dose: 300.0 mg/kg/injection, schedule: Q01DX009 (ip), vehicle: saline 96 % of control | dose: 400.0 mg/kg/injection, schedule: Q01DX009 (ip), vehicle: saline 95 % of control

CNC(=O)C(C)C1C(=O)/C(=C(O)/C=C/C(C)=C\C(C)C2OC3(C)OC(C=CC34CO4)C2C)C(=O)N1C1CCC(O)C(C)O1 (stereo not given)
inactive: [8] 111 % of control | [9] 97 % of control | [12] 101 % of control | [13] 105 % of control | [14] 107 % of control

O=C1OC(=O)N2N=CC=CC12 (stereo not given)
inactive: [1] 102 % of control | [2] 100 % of control | [15] 96 % of control

CCSN1C(=O)c2ccccc2C1=O
inactive: dose: 25.0 mg/kg/injection, schedule: Q04DX002 (ip), vehicle: Klucel (hydroxypropylcellulose) (HPC) 92 % of control | dose: 50.0 mg/kg/injection, schedule: Q04DX002 (ip), vehicle: Klucel (hydroxypropylcellulose) (HPC) 100 % of control | dose: 100.0 mg/kg/injection, schedule: Q04DX002 (ip), vehicle: Klucel (hydroxypropylcellulose) (HPC) 92 % of control

O=[N+]([O-])c1ccc(C2=NCCS2)cc1
inactive: dose: 87.0 mg/kg/injection, schedule: Q04DX003 (ip), vehicle: Klucel (hydroxypropylcellulose) (HPC) 102 % of control | dose: 175.0 mg/kg/injection, schedule: Q04DX003 (ip), vehicle: Klucel (hydroxypropylcellulose) (HPC) 102 % of control | dose: 350.0 mg/kg/injection, schedule: Q04DX003 (ip), vehicle: Klucel (hydroxypropylcellulose) (HPC) 102 % of control

Cc1cc2c3ccccc3[nH]c(=O)n2n1
inactive: [1] 96 % of control | [9] 100 % of control | [2] 95 % of control | [13] 96 % of control | [15] 86 % of control | [14] 87 % of control

O=C(NOCc1cc2c(cc1Cl)OCO2)c1ccc(S(=O)(=O)F)cc1
inactive: dose: 100.0 mg/kg/injection, schedule: Q04DX003 (ip), vehicle: saline sonified 95 % of control

Cc1cc([N+](=O)[O-])c2nnnn2c1
inactive: [16] 108 % of control | [17] 90 % of control

FC(F)(F)c1nnnn1Cc1ccccc1
inactive: dose: 50.0 mg/kg/injection, schedule: Q04DX002 (ip), vehicle: saline 93 % of control | dose: 100.0 mg/kg/injection, schedule: Q04DX002 (ip), vehicle: saline 101 % of control | dose: 200.0 mg/kg/injection, schedule: Q04DX002 (ip), vehicle: saline 101 % of control

CC(O)CC1CC(=O)CCC1=O (stereo not given)
inactive: dose: 100.0 mg/kg/injection, schedule: Q01DX009 (ip), vehicle: acetone 96 % of control | dose: 200.0 mg/kg/injection, schedule: Q01DX009 (ip), vehicle: acetone 101 % of control | dose: 400.0 mg/kg/injection, schedule: Q01DX009 (ip), vehicle: acetone 102 % of control

O=[N+]([O-])c1ccc2cnn(C[N+]34CN5CN(CN(C5)C3)C4)c2c1
inactive: [16] 103 % of control | [17] 100 % of control | dose: 400.0 mg/kg/injection, schedule: Q01DX001 (ip), vehicle: other 111 % of control

c1ccc2cc3cc4cc5ccccc5cc4cc3cc2c1
inactive: [7] 97 % of control | [8] 101 % of control | [12] 101 % of control

CCCCCCCCC(=O)N(C(C)C)C(C)C
inactive: dose: 100.0 mg/kg/injection, schedule: Q01DX009 (ip), vehicle: carboxymethylcellulose (CMC) 93 % of control and 102 % of control | dose: 100.0 mg/kg/injection, schedule: Q04DX002 (ip), vehicle: carboxymethylcellulose (CMC) 98 % of control and 101 % of control | dose: 200.0 mg/kg/injection, schedule: Q01DX009 (ip), vehicle: carboxymethylcellulose (CMC) 93 % of control and 96 % of control | dose: 200.0 mg/kg/injection, schedule: Q04DX002 (ip), vehicle: carboxymethylcellulose (CMC) 95 % of control and 92 % of control | dose: 400.0 mg/kg/injection, schedule: Q01DX009 (ip), vehicle: carboxymethylcellulose (CMC) 92 % of control | dose: 400.0 mg/kg/injection, schedule: Q04DX002 (ip), vehicle: carboxymethylcellulose (CMC) 87 % of control and 92 % of control

NC(=O)c1ccc(Cl)c(Cl)c1
inactive: [3] 97 % of control | [4] 95 % of control | [5] 91 % of control

CCOC(=O)C(NC(C)=O)C(=O)OCC
inactive: [10] 103 % of control | dose: 100.0 mg/kg/injection, schedule: Q04DX003 (ip), vehicle: Klucel (hydroxypropylcellulose) (HPC) 107 % of control | [11] 105 % of control | dose: 200.0 mg/kg/injection, schedule: Q04DX003 (ip), vehicle: Klucel (hydroxypropylcellulose) (HPC) 107 % of control | dose: 400.0 mg/kg/injection, schedule: Q01DX009 (ip), vehicle: Klucel (hydroxypropylcellulose) (HPC) 107 % of control | dose: 400.0 mg/kg/injection, schedule: Q04DX003 (ip), vehicle: Klucel (hydroxypropylcellulose) (HPC) 106 % of control

Cc1cccc[n+]1CC(=O)c1ccc(-c2ccc(C(=O)C[n+]3ccccc3)cc2)cc1
inactive: dose: 0.04 mg/kg/injection, schedule: Q04DX003 (ip), vehicle: saline 102 % of control | dose: 0.08 mg/kg/injection, schedule: Q04DX003 (ip), vehicle: saline 104 % of control | dose: 0.15 mg/kg/injection, schedule: Q04DX003 (ip), vehicle: saline 97 % of control
